These results are taken from patent US20060199864A1, “Selection of pH-dependent compounds for in vivo therapy” (priority 2004, published 2006).

“Also recorded” adds a separate entry of the source. Read-outs that look alike come from different tables or passages of the source.

Data set [1] is described as follows: Locomotor activity of rats (light beam breaks). The following applies: for effects on locomotor activity: monitored 2 hours after injection; for effects on locomotor activity (positive control): varying doses IP. Here is the method:
The Locomotor Activity Index is the total number of beam breaks during the trial divided by 1000.
Locomotor activity was monitored after injection for 2 hours.

Data set [2] has as its target T1, NR1/NR2A (Rattus norvegicus, UniProt P35439+Q00959). The following applies: FIG. 4.
Description: Stage V and VI oocytes were surgically removed from the ovaries of large, well-fed and healthy Xenopus laevis anesthetized with 3-amino-benzoic acid ethyl ester (1 gm/l). Clusters of oocytes were incubated with 292 U/ml Worthington (Freehold, N.J.) type IV collagenase or 1.3 mg/ml collagenase (Life Technologies, Gaithersburg, Md.; 17018-029) for 2 hr in Ca2+-free solution comprised of (in mM) 115 NaCl, 2.5 KCl, and 10 HEPES, pH 7.5, with slow agitation to remove the follicular cell layer. Oocytes were then washed extensively in the same solution supplemented with 1.8 mM CaCl2 and maintained in Barth's solution comprised of (in mM): 88 NaCl, 1 KCl, 24 NaHCO3, 10 HEPES, 0.82 MgSO4, 0.33 Ca(NO3)2, and 0.91 CaCl2 and supplemented with 100 ug/ml gentamycin, 40 ug/ml streptomycin, and 50 ug/ml penicillin. Oocytes were manually defolliculated and injected within 24 hr of isolation with 5 ng of NR1 subunit and 10 ng of NR2 subunit in a 50 nl volume, and incubated in Barth's solution at 18° C. for 3-7 d. Glass injection pipettes had tip sizes ranging from 10-20 microns, and were backfilled with mineral oil.
These stock solutions were subsequently diluted to the appropriate concentration range in a working solution comprised of 90 mM NaCl, 3 mM KCl, 5 mM HEPES, 0.5 mM BaCl2, 10 uM EDTA, 100 uM glutamate, 50 uM glycine (pH either 6.9 or 7.6 adjusted with NAOH or HCl as appropriate). […]
For another data set, the system named is kainate receptors. The experiment in a line: Two electrode voltage clamp, Xenopus oocytes injected with kainate receptor subunits. Format: cell-based. The following applies: 3 uM coadministered with domoate. Here is the method: (§1) Glutamate or domoate induced current recordings were performed using two electrode voltage clamp, and 3 uM of Compound 93-4 coadministered with agonist (glutamate for AMPA receptors, domoate for kainate receptors).

For the next data set, the target named is T2, NR1/NR2B (Rattus norvegicus, UniProt P35439+Q00960).
T2 construct: expressed in transfected cells
The experiment in a line: NMDA receptor mediated currents, NR1/NR2B. It is filed as cell-based. As to conditions: 3 uM; NR1/NR2B subunits.

Data set [3] concerns the target T1, NR1/NR2A. The experiment in a line: NMDA receptor mediated currents, NR1/NR2A. It is filed as cell-based. Also noted: expressed in transfected cells. As to conditions: 3 uM.
The target in the next data set is T3, NR1/NR2D (Rattus norvegicus, UniProt P35439+Q62645).
T3 construct: expressed in transfected cells
The experiment in a line: NMDA receptor mediated currents, NR1/NR2D. The following applies: 3 uM. Format: cell-based.

A further data set has as its system AMPA receptors. The experiment in a line: Two electrode voltage clamp, Xenopus oocytes injected with AMPA receptor subunits. It is filed as cell-based. As to conditions: 3 uM coadministered with glutamate. On the procedure:
as §1

The nature of data set [4]: Side effects observed in the SNL study. Format: in vivo, Sprague-Dawley rats. Here is the method: (§2) Experimental design: von Frey baseline measurements were made 30 minutes and 24 hours prior to drug administration respectively. Additional von Frey measurements were made at 30, 60, 120 and 240 min. The timeline for testing is summarized below. The experimental groups were: ·vehicle (1% DMSO+66% PEG 400 in distilled water, i.p., 4 ml/kg, n=10)·30 mg/kg Compound 93-31 test (i.p., 4 ml/kg, n=10)·100 mg/kg Compound 93-31 test (i.p., 4 ml/kg, n=10)·30 mg/kg Compound 93-97 test (i.p., 4 ml/kg, n=10)·100 mg/kg Compound 93-97 test (i.p., 4 ml/kg, n=10)·100 mg/kg Gabapentin (i.p., 4 ml/kg, n=12) (Total rats: 62). [drawing 42]
The side effects observed were writhing and stretching (8 observations). These side effects were most commonly seen for the first few minutes (˜5 minutes) following i.p. drug administration. […] Some side effects were observed while measuring the endpoints. The most common was stretching/writhing which may be a sign of some visceral pain or hypersensitivity. […] It seems likely to be associated with i.p. administration of the vehicle in a subset of animals. This seemed relatively rare, short lived (<5 min), and the magnitude was not large enough to interfere with measurement of the endpoint.

The nature of data set [5]: Spinal Nerve Ligation (SNL) model, mechanical allodynia (von Frey). Format: in vivo, Sprague-Dawley rats. The following applies: for Injured paw - von Frey threshold: mean ± SEM. Here is the method:
Animals: Male Sprague-Dawley rats (Hsd:Sprague-Dawley®™SD®™, Harlan, Indianapolis, Ind., U.S.A.) weighing 100±10 g on surgery day and 250±10 g on testing day were housed three per cage. Animals had free access to food and water and were maintained on a 12:12 h light/dark schedule. The animal colony was maintained at 21° C. and 60% humidity. All experiments were conducted in accordance with the International Association for the Study of Pain guidelines and were approved by the University of Minnesota Animal Care and Use Committee.
Drugs and dosing solutions: The drugs were dissolved in 1% v/v DMSO and 66% v/v PEG 400 in distilled water. Compounds were administered by i.p. route.
Induction of chronic neuropathic pain: The Spinal Nerve Ligation (SNL) model (Kim and Chung 1992 Pain 50:355-63.) was used to induce chronic neuropathic pain. The animals were anesthetized with isoflurane, the left […] transverse process was removed, and the L5 and L6 spinal nerves were tightly ligated with 6-0 silk suture. The wound was then closed with internal sutures and external staples. Wound clips were removed 10 days following surgery.
Mechanical allodynia testing: Baseline and post-treatment values for non-noxious mechanical sensitivity were evaluated using 8 Semmes-Weinstein filaments (Stoelting, Wood Dale, Ill., USA) with varying stiffness (0.4, 0.7, 1.2, 2.0, 3.6, 5.5, 8.5, and 15 g) according to the up-down method (Chaplan, Bach et al. 1994 J Neurosci Methods 53: 55-63). Animals were placed on a perforated metallic platform and allowed to acclimate to their surroundings for a minimum of 30 minutes before testing. The mean and standard error of the mean (SEM) were determined for each animal in each treatment group. Since this stimulus is normally not considered painful, significant injury-induced increases in responsiveness in this test are interpreted as a measure of mechanical allodynia.
as §2
Data analysis: Statistical analyses were conducted using Prism™ 4.01 (GraphPad, San Diego, Calif., USA). Mechanical allodynia of the injured paw was determined by comparing values observed in the contralateral and ipsilateral paws within the vehicle group. Stability of vehicle group injured paw values over time was tested using the Friedman two-way analysis of variance by rank. Drug effect was analyzed at each time point by carrying out a Kruskal-Wallis one-way analysis of variance by rank followed by a Dunn's post hoc test.
Testing for mechanical allodynia (von Frey) was initiated 14 days after SNL surgery. Tests were performed on both injured (ipsilateral) and normal (contralateral) paws at baseline (30 minutes before drug administration) and 30, 60, 120 and 240 minutes after a single drug administration.

For data set [6] the following is noted: cats; highest dose tested; Gotti et al.; cited from earlier work.
The conditions of data set [7]: rats; Dogan et al.; cited from earlier work.
The subject of data set [8] is primary cultures of rat cerebral cortex. The following applies: pH 6.5 vs pH 7.5; Mott et al. 1998; cited from earlier work.
The conditions of data set [9]: cats and rats; highest dose tested; Gotti et al.; cited from earlier work.

T1 sequence (Q00959 23-1464, other chains not shown): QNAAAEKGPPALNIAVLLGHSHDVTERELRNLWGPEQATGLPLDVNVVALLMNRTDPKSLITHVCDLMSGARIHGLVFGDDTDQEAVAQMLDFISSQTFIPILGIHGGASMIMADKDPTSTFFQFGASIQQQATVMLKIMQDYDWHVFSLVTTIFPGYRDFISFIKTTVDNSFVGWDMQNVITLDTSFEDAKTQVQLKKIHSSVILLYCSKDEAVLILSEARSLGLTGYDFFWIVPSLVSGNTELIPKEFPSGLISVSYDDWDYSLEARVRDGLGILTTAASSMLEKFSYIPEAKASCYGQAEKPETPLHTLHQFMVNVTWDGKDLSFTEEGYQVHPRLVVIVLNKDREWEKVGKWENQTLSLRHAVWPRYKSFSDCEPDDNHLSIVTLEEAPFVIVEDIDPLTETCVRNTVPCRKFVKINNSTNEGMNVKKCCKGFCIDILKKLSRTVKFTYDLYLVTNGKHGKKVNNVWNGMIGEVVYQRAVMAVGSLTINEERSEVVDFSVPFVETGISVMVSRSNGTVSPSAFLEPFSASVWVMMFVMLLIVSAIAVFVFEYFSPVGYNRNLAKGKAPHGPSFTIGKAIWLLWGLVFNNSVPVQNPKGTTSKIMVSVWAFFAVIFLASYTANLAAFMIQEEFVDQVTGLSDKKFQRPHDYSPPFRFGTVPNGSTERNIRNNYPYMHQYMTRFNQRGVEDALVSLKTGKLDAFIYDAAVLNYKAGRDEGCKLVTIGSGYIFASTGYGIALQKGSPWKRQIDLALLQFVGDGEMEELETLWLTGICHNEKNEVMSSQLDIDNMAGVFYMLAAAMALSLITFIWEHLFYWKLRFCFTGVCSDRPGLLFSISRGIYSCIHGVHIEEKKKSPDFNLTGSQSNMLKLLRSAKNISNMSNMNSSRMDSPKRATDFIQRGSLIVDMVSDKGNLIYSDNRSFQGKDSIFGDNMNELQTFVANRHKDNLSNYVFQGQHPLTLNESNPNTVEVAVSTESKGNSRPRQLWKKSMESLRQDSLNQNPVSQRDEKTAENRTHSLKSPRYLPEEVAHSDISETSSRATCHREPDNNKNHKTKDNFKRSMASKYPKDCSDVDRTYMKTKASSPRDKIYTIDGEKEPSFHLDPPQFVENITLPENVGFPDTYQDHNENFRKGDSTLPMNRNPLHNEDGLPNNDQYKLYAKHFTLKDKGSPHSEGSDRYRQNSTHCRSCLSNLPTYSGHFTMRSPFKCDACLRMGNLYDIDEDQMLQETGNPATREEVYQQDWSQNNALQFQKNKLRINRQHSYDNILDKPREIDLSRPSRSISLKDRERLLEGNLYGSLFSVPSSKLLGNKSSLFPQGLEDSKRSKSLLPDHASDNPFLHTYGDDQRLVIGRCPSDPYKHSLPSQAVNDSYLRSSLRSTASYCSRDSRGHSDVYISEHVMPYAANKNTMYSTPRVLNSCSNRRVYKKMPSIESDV
T3 sequence (Q62645 28-1323, other chains not shown): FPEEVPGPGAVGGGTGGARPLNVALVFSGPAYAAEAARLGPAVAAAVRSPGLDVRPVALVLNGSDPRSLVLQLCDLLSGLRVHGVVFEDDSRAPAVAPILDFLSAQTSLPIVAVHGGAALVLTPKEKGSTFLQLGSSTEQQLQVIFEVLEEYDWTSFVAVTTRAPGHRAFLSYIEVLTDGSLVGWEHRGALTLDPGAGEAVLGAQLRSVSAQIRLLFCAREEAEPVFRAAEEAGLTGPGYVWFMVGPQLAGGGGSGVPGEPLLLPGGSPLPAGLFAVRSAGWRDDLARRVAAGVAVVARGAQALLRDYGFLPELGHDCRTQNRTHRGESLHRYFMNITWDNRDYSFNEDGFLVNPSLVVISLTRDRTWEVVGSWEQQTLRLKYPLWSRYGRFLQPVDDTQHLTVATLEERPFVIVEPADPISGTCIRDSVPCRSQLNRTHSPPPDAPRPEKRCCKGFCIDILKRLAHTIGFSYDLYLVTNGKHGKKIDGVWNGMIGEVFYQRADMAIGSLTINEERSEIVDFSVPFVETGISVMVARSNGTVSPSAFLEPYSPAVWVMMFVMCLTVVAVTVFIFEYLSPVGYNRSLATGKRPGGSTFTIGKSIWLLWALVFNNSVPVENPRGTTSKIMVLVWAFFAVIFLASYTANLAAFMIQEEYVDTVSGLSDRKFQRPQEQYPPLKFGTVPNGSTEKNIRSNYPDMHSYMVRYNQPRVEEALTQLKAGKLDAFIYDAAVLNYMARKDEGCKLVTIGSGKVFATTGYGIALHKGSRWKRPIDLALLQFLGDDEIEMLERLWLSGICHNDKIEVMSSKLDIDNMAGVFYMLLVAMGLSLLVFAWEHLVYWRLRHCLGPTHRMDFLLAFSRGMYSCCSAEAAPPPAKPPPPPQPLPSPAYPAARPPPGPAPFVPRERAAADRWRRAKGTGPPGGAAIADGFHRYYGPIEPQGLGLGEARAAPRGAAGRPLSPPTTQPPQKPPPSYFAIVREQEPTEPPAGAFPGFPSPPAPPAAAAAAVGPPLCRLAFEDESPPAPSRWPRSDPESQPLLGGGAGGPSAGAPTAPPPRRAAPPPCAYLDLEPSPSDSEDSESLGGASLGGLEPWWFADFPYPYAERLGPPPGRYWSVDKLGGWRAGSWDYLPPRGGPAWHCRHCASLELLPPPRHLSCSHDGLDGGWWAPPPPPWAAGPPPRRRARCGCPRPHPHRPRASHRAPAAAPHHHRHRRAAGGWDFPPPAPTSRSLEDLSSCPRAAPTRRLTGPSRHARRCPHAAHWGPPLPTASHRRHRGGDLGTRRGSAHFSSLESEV
T2 sequence (Q00960 27-1482, other chains not shown): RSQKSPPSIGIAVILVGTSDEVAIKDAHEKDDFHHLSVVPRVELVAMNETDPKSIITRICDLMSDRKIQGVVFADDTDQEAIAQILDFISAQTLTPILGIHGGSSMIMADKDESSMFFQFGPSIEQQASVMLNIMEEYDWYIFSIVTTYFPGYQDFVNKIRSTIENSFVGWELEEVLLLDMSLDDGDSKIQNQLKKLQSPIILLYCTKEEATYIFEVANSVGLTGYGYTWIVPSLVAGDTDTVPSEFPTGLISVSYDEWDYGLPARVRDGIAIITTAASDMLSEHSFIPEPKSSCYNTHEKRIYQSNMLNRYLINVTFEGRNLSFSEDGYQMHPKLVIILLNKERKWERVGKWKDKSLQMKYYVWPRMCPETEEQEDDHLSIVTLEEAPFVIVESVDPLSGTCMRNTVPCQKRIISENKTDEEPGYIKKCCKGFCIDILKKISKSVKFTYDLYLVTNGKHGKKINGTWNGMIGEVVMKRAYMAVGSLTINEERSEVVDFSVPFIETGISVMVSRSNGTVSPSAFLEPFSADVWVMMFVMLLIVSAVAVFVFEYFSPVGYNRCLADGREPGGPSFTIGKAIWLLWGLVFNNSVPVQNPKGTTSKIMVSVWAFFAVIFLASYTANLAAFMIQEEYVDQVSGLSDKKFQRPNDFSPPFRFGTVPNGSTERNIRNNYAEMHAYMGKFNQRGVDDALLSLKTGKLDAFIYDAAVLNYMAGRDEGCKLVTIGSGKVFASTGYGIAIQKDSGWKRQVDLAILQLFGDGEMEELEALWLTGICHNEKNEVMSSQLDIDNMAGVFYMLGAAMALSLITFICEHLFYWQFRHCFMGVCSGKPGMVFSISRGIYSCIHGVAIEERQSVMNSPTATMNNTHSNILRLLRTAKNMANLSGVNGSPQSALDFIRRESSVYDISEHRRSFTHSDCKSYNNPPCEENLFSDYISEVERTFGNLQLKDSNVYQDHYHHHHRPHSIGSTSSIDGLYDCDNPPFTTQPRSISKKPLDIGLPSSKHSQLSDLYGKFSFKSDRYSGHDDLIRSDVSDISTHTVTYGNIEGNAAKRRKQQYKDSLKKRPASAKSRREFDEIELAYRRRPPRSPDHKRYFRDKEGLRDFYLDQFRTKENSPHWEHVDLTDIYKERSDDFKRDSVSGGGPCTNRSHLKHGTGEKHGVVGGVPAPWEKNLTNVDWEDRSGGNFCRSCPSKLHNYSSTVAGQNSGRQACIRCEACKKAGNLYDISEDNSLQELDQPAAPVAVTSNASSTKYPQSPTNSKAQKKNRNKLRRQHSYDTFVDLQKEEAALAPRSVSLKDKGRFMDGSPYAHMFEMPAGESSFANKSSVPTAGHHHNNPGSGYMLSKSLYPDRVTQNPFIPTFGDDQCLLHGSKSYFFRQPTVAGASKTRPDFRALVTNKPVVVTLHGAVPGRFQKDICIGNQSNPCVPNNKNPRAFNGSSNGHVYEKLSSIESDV

Take `C[C@@]12N[C@@H](Cc3ccccc31)c1ccccc12` [(−)MK801, reference compound]: in data set [1] (compared to vehicle injected control animals), the “fold less potent than (+)MK801 in causing the induction of locomotor activity” value is given as “at least 10 fold”. Also, the “mean within the shaded area (criteria for improved drug performance) for NR1/NR2A” value on NR1/NR2A [2] is given as “fall within the shaded area”.

Turning to `CS(=O)(=O)Nc1ccc(OC[C@@H](O)CNCCc2ccc(Cl)c(Cl)c2)cc1` [Compound 93-4], the “reduction in the agonist induced response” value in the data set with kainate receptors and in the data set with AMPA receptors was “No reduction” each time. In addition, in data set [1] (3-300 mg/kg IP), the “effects on locomotor activity” value is recorded as “no significant effects”. The “inhibiting NMDA receptor mediated currents” value at NR1/NR2B is “effective at inhibiting”; on NR1/NR2A [3], “not NR1/NR2A”; against NR1/NR2D it was “not NR1/NR2A or NR1/NR2D”.

For `CCN(CCc1ccc(Cl)c(Cl)c1)C[C@H](O)COc1ccc(NS(C)(=O)=O)cc1` [Compound 93-5], the “effects on locomotor activity” value in data set [1] (3-300 mg/kg IP) is given as “no significant effects”.

Regarding `CS(=O)(=O)Nc1ccc(OC[C@@H](O)CN(CCO)CCc2ccc(Cl)c(Cl)c2)cc1` [Compound 93-8], the “effects on locomotor activity” value in data set [1] (30-300 mg/kg IP) is recorded as “no significant effects”.

With `CCCCN(CCc1ccc(Cl)c(Cl)c1)C[C@H](O)COc1ccc(NS(C)(=O)=O)cc1` [Compound 93-31], the “Side Effects: stretching/writhing (animals affected/group)” value (shortened to “Side Effects: stretching/writhing”) in data set [4] (30 mg/kg i.p.) is 0/10 stretching/writhing. In addition, the “effects on locomotor activity” value in data set [1] (3-300 mg/kg IP) is given as “no significant effects”. Further, the “effect on locomotor activity index” value in data set [1] (IP, doses up to 300 mg/kg, FIG. 5) is listed as “no significant effect”. Moreover, the “analgesic effect, injured paw” value in [5] (30 mg/kg i.p., any time point studied) is listed as “no analgesic effect”. Besides, the “Injured paw - von Frey threshold” value came to 1.9 ± 0.3 in data set [5] (30 mg/kg i.p., 30 min); 1.7 ± 0.1 in data set [5] (30 mg/kg i.p., 60 min); 0.8 ± 0.2 in data set [5] (30 mg/kg i.p., 120 min); 1.1 ± 0.3 in data set [5] (30 mg/kg i.p., 240 min); 2.4 ± 0.4 in data set [5] (30 mg/kg i.p., Baseline); 9.3 ± 1.5 in [5] (100 mg/kg i.p., 30 min). In addition, the “Injured paw - von Frey threshold” value was 8.9 ± 1.7 in [5] (100 mg/kg i.p., 60 min); 1.9 ± 0.3 in [5] (100 mg/kg i.p., 120 min); 0.8 ± 0.2 in data set [5] (100 mg/kg i.p., 240 min); 1.7 ± 0.3 in [5] (100 mg/kg i.p., Baseline). Besides, the “analgesia / attenuation of mechanical allodynia, injured paw” value in [5] (100 mg/kg i.p.) was “observable analgesia at 30 and 60 min; also recorded: appeared to attenuate mechanical allodynia; also recorded: attenuated mechanical allodynia”. For the same molecule, in [5] (100 mg/kg i.p.), the duration of action worked out at 60 min. This molecule had an onset in data set [5] (100 mg/kg i.p.) of 30 min. Further, the “peak threshold relative to the normal paw” value in [5] (100 mg/kg i.p.) was “approximately half of that seen in the normal paw”. For the same molecule, in data set [5] (30 and 100 mg/kg i.p.), the “effect on von Frey thresholds measured in the normal paw” value is given as “no effect on the normal paw”. Besides, in data set [5] (Rattus norvegicus, ip, assuming complete reversal may be achieved with higher doses), the ED50 was around 100 mg/kg.

Regarding `CS(=O)(=O)Nc1ccc(OC[C@H](O)CN(CCc2ccc(Cl)c(Cl)c2)Cc2ccccc2O)cc1` [Compound 93-40], the “effects on locomotor activity” value in data set [1] (30 mg/kg IP) is “no significant effects”.

On to `CS(=O)(=O)Nc1ccc(OCC(O)CN(CCc2ccc(Cl)c(Cl)c2)Cc2cccc(O)c2)cc1` (stereo not shown) [Compound 93-41], for which, in data set [1] (30-300 mg/kg IP), the “effects on locomotor activity” value was “no significant effects”.

For the molecule `CC(C)CN(CCc1ccc(Cl)c(Cl)c1)C[C@H](O)COc1ccc(NS(C)(=O)=O)cc1` [Compound 93-97], the “Side Effects: stretching/writhing” value in data set [4] (30 mg/kg i.p.) is 2/10 stretching/writhing (for first 5 min). Also, the “Injured paw - von Frey threshold” value in data set [5] (30 mg/kg i.p., 30 min) came out at 1.6 ± 0.3; in data set [5] (30 mg/kg i.p., 60 min), 1.1 ± 0.1; in data set [5] (30 mg/kg i.p., 120 min), 0.9 ± 0.1; in data set [5] (30 mg/kg i.p., 240 min), 1.0 ± 0.2; in [5] (30 mg/kg i.p., Baseline), 1.9 ± 0.2; in data set [5] (100 mg/kg i.p., 30 min), 1.1 ± 0.2. The “Injured paw - von Frey threshold” value in data set [5] (100 mg/kg i.p., 60 min) was determined as 1.4 ± 0.3; in data set [5] (100 mg/kg i.p., 120 min) it was 1.0 ± 0.1; in data set [5] (100 mg/kg i.p., 240 min) it was 0.8 ± 0.2; in data set [5] (100 mg/kg i.p., Baseline), 1.2 ± 0.1. Besides, the “effect on von Frey thresholds measured in the normal paw” value in [5] (30 and 100 mg/kg i.p.) is “no effect on normal paw”. Besides, the “analgesic effect / attenuation of mechanical allodynia, injured paw” value in data set [5] (30 and 100 mg/kg i.p., any time point studied) is reported as “no analgesic effect; also recorded: failed to attenuate mechanical allodynia”.

`NCC1(CC(=O)O)CCCCC1` [Gabapentin, reference compound]: the “Side Effects: stretching/writhing” value in data set [4] (100 mg/kg i.p., for first 5 min) is 1/10 stretching/writhing (for first 5 min). Further, the “Injured paw - von Frey threshold” value in [5] (100 mg/kg i.p., 30 min) was 6.0 ± 1.1; in data set [5] (100 mg/kg i.p., 60 min) it was 11.1 ± 1.5; in [5] (100 mg/kg i.p., 120 min), 13.6 ± 0.9; in data set [5] (100 mg/kg i.p., 240 min) it was 6.6 ± 1.3; in data set [5] (100 mg/kg i.p., Baseline), 1.9 ± 0.2.

Regarding `CC(C(O)c1ccc(O)cc1)N1CCC(Cc2ccccc2)CC1` (stereo not shown) [Ifenprodil], the decrease infarct volume in [6] is 42%. In addition, the “decrease in infarct volume” value in [7] is on record as 22%. Moreover, in data set [8], the “pH dependence of potency” value was “more potent at lower pH (6.5) than higher pH (7.5)”.

With `OC(CN1CCC(Cc2ccc(F)cc2)CC1)c1ccc(Cl)cc1` (stereo not shown) [SL 82.0715], in data set [9], the “decrease in infarct volume” value was 36-48%.

As for `CNC1(c2ccccc2Cl)CCCCC1=O` (stereo not shown) [ketamine], at NR1/NR2A [2], the “mean within the shaded area (criteria for improved drug performance) for NR1/NR2A” value is listed as “fall within the shaded area”.

For (+)MK801 [reference compound], the “effects on locomotor activity (positive control)” value was “stereotypical biphasic effects on locomotor activity” in data set [1]; “induced locomotor activity at low doses and ataxia at higher doses” in data set [1] (listed as (+)MK-801).
